Data as given in patent US8937189B2, “Tri-substituted 2-benzhydryl-5-benzylamino-tetrahydro-pyran-4-ol and 6-benzhydryl-4-benzylamino-tetrahydro-pyran-3-ol analogues, and novel 3,6-disubstituted pyran derivatives” (Wayne State University, priority 2004, dated 2015).
Counter-ions that a name gives are not always drawn.

Tests used:
rat NET = test: Inhibition of [3H]nisoxetine binding to NET; conditions: Table 3; selectivity ratio of IC50 values
Procedure: (§1) Briefly, rat striatum was the source for DAT, and cerebral cortex for SERT and NET. […] Test compounds were dissolved in dimethyl sulfoxide (DMSO) and diluted out in 10% (v/v) DMSO. […] At lease five triplicate concentrations of each test compound were studied, spaced evenly around the IC50 value. For DAT uptake assays, uptake of 50 nM [^3H]DA into rat striatal synaptosomes was measured exactly as described by us previously. Briefly, rat striatal P2 membrane fractions were incubated with test compounds for 8 min followed by the additional presence of [^3H]DA for 4 min at 25?. […] Construction of inhibition curves and dissolvement of test compounds were as described above.

rat DAT = molecular target: T1, rat DAT (Rattus norvegicus, UniProt P23977); test: Inhibition of [3H]WIN 35,428 binding to DAT
T1 construct: rat striatum was the source for DAT, and cerebral cortex for SERT and NET; from tissue; host or cells: rat striatum (P2 membrane fractions / synaptosomes for uptake)
Procedure: as §1

DAT = molecular target: T2, DAT (Rattus norvegicus, UniProt P23977); test: Inhibition of [3H]DA uptake by DAT into rat striatal synaptosomes; format: biochemical; conditions: DAT binding vs DA uptake
T2 construct: rat striatum was the source for DAT, and cerebral cortex for SERT and NET; from tissue; host or cells: rat striatum (P2 membrane fractions / synaptosomes for uptake)
Procedure: as §1

NET = molecular target: T3, NET (Rattus norvegicus, UniProt Q63380); test: Inhibition of [3H]NE uptake by NET; format: biochemical; conditions: text summary of Table 4
T3 construct: from tissue

SERT = molecular target: T4, SERT (Rattus norvegicus, UniProt P31652); test: Inhibition of [3H]5-HT uptake by SERT; format: biochemical; conditions: text summary of Table 4
T4 construct: from tissue

rat SERT = molecular target: T5, rat SERT (Rattus norvegicus, UniProt P31652); test: Inhibition of [3H]citalopram binding to SERT
T5 construct: rat striatum was the source for DAT, and cerebral cortex for SERT and NET; from tissue; host or cells: rat cerebral cortex
Procedure: as §1

T4 sequence (P31652 whole entry): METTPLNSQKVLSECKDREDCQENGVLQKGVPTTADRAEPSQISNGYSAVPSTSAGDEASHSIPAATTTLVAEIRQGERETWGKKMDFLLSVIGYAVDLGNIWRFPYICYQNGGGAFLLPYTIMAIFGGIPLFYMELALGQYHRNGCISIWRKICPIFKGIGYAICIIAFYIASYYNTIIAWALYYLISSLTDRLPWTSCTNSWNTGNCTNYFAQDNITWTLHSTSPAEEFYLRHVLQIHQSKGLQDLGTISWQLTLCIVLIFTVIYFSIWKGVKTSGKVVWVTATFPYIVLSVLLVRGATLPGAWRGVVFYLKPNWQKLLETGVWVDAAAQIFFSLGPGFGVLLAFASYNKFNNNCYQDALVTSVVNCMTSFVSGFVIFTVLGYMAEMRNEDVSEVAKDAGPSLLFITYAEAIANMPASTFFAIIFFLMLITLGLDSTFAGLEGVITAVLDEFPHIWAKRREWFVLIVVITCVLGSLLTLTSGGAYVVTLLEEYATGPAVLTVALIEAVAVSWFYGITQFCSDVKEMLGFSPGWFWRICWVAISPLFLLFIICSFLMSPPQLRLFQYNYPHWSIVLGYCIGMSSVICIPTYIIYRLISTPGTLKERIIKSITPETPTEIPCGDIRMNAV
T1 sequence (P23977 whole entry): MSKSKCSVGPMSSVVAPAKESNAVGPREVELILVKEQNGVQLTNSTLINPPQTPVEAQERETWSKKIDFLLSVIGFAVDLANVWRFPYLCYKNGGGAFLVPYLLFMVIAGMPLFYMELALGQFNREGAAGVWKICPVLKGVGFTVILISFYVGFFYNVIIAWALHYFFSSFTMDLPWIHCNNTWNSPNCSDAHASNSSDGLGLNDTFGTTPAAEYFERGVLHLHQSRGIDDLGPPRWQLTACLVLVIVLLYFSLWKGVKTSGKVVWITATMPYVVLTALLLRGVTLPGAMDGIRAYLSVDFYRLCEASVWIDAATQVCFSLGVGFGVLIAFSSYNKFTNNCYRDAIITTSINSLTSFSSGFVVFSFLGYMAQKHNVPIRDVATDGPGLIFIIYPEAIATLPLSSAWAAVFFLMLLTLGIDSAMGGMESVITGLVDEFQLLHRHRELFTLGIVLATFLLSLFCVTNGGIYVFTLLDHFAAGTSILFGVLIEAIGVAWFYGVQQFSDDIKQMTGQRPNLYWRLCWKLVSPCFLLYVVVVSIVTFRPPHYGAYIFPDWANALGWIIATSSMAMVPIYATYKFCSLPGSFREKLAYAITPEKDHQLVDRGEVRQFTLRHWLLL
T3 sequence (Q63380 1-617): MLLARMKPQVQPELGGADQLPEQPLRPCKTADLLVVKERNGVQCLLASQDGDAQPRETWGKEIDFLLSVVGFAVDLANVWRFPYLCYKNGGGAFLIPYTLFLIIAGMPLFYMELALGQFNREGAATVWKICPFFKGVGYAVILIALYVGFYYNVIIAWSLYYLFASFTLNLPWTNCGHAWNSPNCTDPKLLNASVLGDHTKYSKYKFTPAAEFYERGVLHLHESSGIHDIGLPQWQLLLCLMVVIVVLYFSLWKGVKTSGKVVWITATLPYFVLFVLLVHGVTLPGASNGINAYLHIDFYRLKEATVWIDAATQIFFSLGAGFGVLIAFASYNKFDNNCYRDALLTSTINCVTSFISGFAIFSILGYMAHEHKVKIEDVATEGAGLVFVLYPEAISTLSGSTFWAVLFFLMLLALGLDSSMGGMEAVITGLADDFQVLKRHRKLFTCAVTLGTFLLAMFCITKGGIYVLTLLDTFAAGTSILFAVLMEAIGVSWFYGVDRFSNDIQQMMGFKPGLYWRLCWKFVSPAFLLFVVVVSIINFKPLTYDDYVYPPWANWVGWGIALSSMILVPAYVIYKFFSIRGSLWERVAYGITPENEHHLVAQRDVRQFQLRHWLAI
T5 sequence (P31652 whole entry): as the sequence (P31652 whole entry) above
T2 sequence (P23977 whole entry): as the sequence (P23977 whole entry) above

Compound	NET binding/DAT binding (rat NET)	Blockade of NET, in words (NET)	also measured
COc1ccc(CN[C@H]2C[C@H](C(c3ccccc3)c3ccccc3)OC[C@H]2O)cc1 (as salt: oxalate) [(+)-29g, (3S,4S,6R)-6-benzhydryl-4-(4-methoxy-benzylamino)-tetrahydro-pyran-3-ol]	–	–	melting point: 235 to 237 °C
O[C@@H]1CO[C@@H](C(c2ccccc2)c2ccccc2)C[C@@H]1NCc1ccccc1 (as salt: oxalate) [(+)-29h, (3S,4S,6R)-6-benzhydryl-4-benzylamino-tetrahydropyran-3-ol]	–	–	melting point: 259 to 260 °C
O[C@@H]1CO[C@H](C(c2ccccc2)c2ccccc2)C[C@H]1NCc1ccccc1 (as salt: oxalate) [(−)-29h, (3S,4R,6S)-6-benzhydryl-4-benzylamino-tetrahydropyran-3-ol]	–	–	melting point: 259 to 260 °C
Oc1ccc(CN[C@H]2CC[C@@H](C(c3ccccc3)c3ccccc3)OC2)cc1 (relative stereo) (as salt: oxalate) [Compound 16h, Cis-(6-benzhydryl-tetrahydropyran-3-yl)-(4-hydroxy-benzyl)-amine]	–	–	melting point: 136 to 138 °C
Fc1ccc(CN[C@H]2CCO[C@@H](C(c3ccccc3)c3ccccc3)C2)cc1 (relative stereo) [Compound 7a, cis-(2-benzhydryl-tetrahydropyran-4-yl)-(4-fluorobenzyl)-amine]	3.9	–	–
N[C@H]1CC[C@@H](C(c2ccccc2)c2ccccc2)OC1 (relative stereo) [Compound 15, Cis-(6-benzhydryl-tetrahydropyran-3-yl)-amine]	–	–	Activity at the DAT, in words (rat DAT): little or no activity at the DAT
Fc1ccc(CN[C@H]2CC[C@@H](C(c3ccccc3)c3ccccc3)OC2)cc1 (relative stereo) [Compound 16b, Cis-(6-benzhydryl-tetrahydropyran-3-yl)-(4-fluoro-benzyl)-amine]	1.4	–	–
O=[N+]([O-])c1ccc(CN[C@H]2CC[C@@H](C(c3ccccc3)c3ccccc3)OC2)cc1 (relative stereo) [Compound 16d, Cis-(6-benzhydryl-tetrahydropyran-3-yl)-(4-nitro-benzyl)-amine]	–	–	Potency in inhibiting binding versus uptake, in words (DAT): three fold higher potency in inhibiting binding than uptake
Clc1ccc(CN[C@H]2CC[C@@H](C(c3ccccc3)c3ccccc3)OC2)cc1Cl (relative stereo) [Compound 16i, Cis-(6-benzhydryl-tetrahydropyran-3-yl)-(3,4-dichloro-benzyl)-amine]	0.36	–	–
Fc1ccc(CN[C@H]2CC[C@@H](C(c3ccccc3)c3ccccc3)OC2)cc1F (relative stereo) [Compound 16j, Cis-(6-benzhydryl-tetrahydropyran-3-yl)-(3,4-difluoro-benzyl)-amine]	1.9	–	–
c1ccc(CN[C@H]2CC[C@@H](C(c3ccccc3)c3ccccc3)OC2)cc1 (relative stereo) [Compound 16k, Cis-(6-benzhydryl-tetrahydropyran-3-yl)-benzyl-amine]	0.90	–	–
Ic1ccc(CN[C@H]2CC[C@@H](C(c3ccccc3)c3ccccc3)OC2)cc1 (relative stereo) [Compound 16m, Cis-(6-benzhydryl-tetrahydropyran-3-yl)-(4-iodo-benzyl)-amine]	0.73	–	–
c1ccc(C(c2ccccc2)[C@@H]2CC[C@H](NCc3ccc4[nH]ccc4c3)CO2)cc1 (relative stereo) [Compound 16n, Cis-(6-benzhydryl-tetrahydropyran-3-yl)-(1H-iodo-5-ylmethyl)-amine]	0.09	–	–
Oc1ccc(CN[C@H]2CO[C@@H](C(c3ccccc3)c3ccccc3)C[C@@H]2O)cc1 [(+)-32a, (2R,4S,5S)-2-benzhydryl-5-(4-hydroxy-benzylamino)-tetrahydro-pyran-4-ol]	–	selective blockers for NET	–
Oc1ccc(CN[C@@H]2CC[C@H](C(c3ccccc3)c3ccccc3)OC2)cc1 [(+)-37a, cis-(3R,6R)-(6-benzhydryl-tetrahydropyran-3-yl)-(4-hydroxy-benzyl)-amine]	–	selective blockers for NET	–
COc1ccc(CN[C@@H]2CO[C@H](C(c3ccccc3)c3ccccc3)C[C@H]2O)cc1 [(−)-29a, (2S,4R,5R)-2-benzhydryl-5-(4-methoxy-benzylamino)-tetrahydropyran-4-ol]	–	potent blockers	Blockade of SERT, in words (SERT): potent blockers
O[C@@H]1C[C@@H](C(c2ccccc2)c2ccccc2)OC[C@H]1NCc1ccc(F)cc1 [(−)-29b, (2S,4R,5R)-2-benzhydryl-5-(4-fluoro-benzylamino)-tetrahydro-pyran-4-ol]	–	selective blockers for NET	–
O[C@@H]1C[C@@H](C(c2ccccc2)c2ccccc2)OC[C@H]1NCc1ccccc1 [(−)-29d, (2S,4R,5R)-2-benzhydryl-5-benzylamino-tetrahydro-pyran-4-ol]	–	selective blockers for NET	–
COc1ccc(CN[C@@H]2CO[C@H](C(c3ccccc3)c3ccccc3)C[C@H]2O)c(OC)c1 [(−)-29e, (2S,4R,5R)-2-benzhydryl-5-(2,4-dimethoxy-benzylamino)-tetrahydropyran-4-ol]	–	potent blockers	Blockade of SERT, in words (SERT): potent blockers
COc1cc(CN[C@@H]2CO[C@H](C(c3ccccc3)c3ccccc3)C[C@H]2O)cc(OC)c1 [(−)-29f, (2S,4R,5R)-2-benzhydryl-5-(3,5-dimethoxy-benzylamino)-tetrahydropyran-4-ol]	–	potent blockers	Blockade of SERT, in words (SERT): potent blockers
Oc1ccc(CN[C@@H]2CO[C@H](C(c3ccccc3)c3ccccc3)C[C@H]2O)cc1 [(−)-32a, (2S,4R,5R)-2-benzhydryl-5-(4-hydroxy-benzylamino)-tetrahydropyran-4-ol]	–	selective blockers for NET	–
O[C@@H]1C[C@@H](C(c2ccccc2)c2ccccc2)OC[C@H]1NCc1ccc2[nH]ccc2c1 [(−)-32b, (2S,4R,5R)-2-benzhydryl-5-[(1H-indol-5-ylmethyl)-amino]-tetrahydropyran-4-ol]	–	potent blockers	Blockade of SERT, in words (SERT): potent blockers
Oc1ccc(CN[C@H]2CC[C@@H](C(c3ccccc3)c3ccccc3)OC2)cc1 [(−)-37a, cis-(3S,6S)-(6-benzhydryl-tetrahydropyran-3-yl)-(4-hydroxy-benzyl)-amine]	–	potent blockers	Blockade of SERT, in words (SERT): potent blockers
c1ccc(CN[C@H]2CC[C@@H](C(c3ccccc3)c3ccccc3)NC2)cc1 [Compound 1a, reference compound]	–	–	IC50 (rat SERT): 2.13 ± 0.11 µM; IC50 (rat DAT): 0.114 µM
c1ccc(C(c2ccccc2)C2CCC(NCc3c[nH]c4ccccc34)CO2)cc1 (stereo not drawn) [Compound 16f, Cis-(6-benzhydryl-tetrahydropyran-3-yl)-(3-indole-methyl)-amine]	2.3	–	–
c1ccc(C(c2ccccc2)C2CCC(NCc3cc4ccccc4[nH]3)CO2)cc1 (stereo not drawn) [Compound 16g, Cis-(6-benzhydryl-tetrahydropyran-3-yl)-(2-indole-methyl)-amine]	1.8	–	Fold more active at DAT compared to 16f (rat DAT; DAT binding, 227 vs. 794 nM): 3.5 fold
